Assay results reported in patent publication US9738902B2, “Modified PYR/PYL receptors activated by ligands” (priority 2013, dated 2017).

How the values were obtained:
Assay in all cases: thermal imaging of leaf temperature
Assay type in all cases: in vivo, Arabidopsis
[1] = system: homozygous PYR1^MANDI expressing transgenic plants
Method: (§1) To investigate if the system is sufficient to control ABA responses in vegetative tissues, we generated homozygous transgenic lines for two 35S-driven lines (E15 and E16) and 2 RBCS-driven lines (F29 and F34). These materials were grown along side wild type plants and a previously constructed 35S::GFP-PYR1 over expression line (Park et al., 2009). These plants were grown until three weeks old and then treated with a solution containing either 2 μM mandipropamid and 0.02% Silwet or a mock treatment containing 0.02% Silwet and the mandipropamid carrier solvent (DMSO). 24 hours after treatment, the leaf temperatures were examined using a thermal imaging camera. It is well known that ABA-induced guard cell closure reduces transpiration, which leads to increases in leaf temperatures. […] Since guard cell aperture is the primary determinant of transpiration rates, thermal imaging is a useful way to indirectly infer relative transpiration rates and guard cell aperture at the whole plant level. As is shown in FIG. 3, mandipropamid treatment of homozygous PYR1^MANDI expressing transgenic plants leads to large changes in leaf temperature (˜2° C. increase) within 24 hours of treatment.
Treatment of plants with abscisic acid leads to the induction of CYP707A cytochrome P450s, which hydroxylate ABA at its 8′ methyl group. […] Thus, ABA applications lose effect over time due to metabolic inactivation. Given that mandipropamid is a non-native molecule, it is likely not a degraded by the CYP707A enzyme system. […] Plants were treated with mock, 1, 5 or 20 μM mandipropamid and then analyzed by thermography at 4 hours, 3 and 6 days after treatment. […] Additionally, control and 1 μM treated plants flowered during the experiment while flowering was prevented in the 5 μM and 20 μM treated mandipropamid plants.

[2] = system: wild type plants; details: 2 μM, 24 hours
Method: as §1

[3] = system: 35S::GFP-PYR1 expressing transgenic plants; details: 35S::GFP-PYR1, 2 μM, 24 hours
Method: as §1

SMILES: C#CCOc1ccc(CCNC(=O)C(OCC#C)c2ccc(Cl)cc2)cc1OC (stereo not drawn) [Mandipropamid, mandipropamid]
- flowering during the experiment ([1]; 1 μM mandipropamid): flowered
- leaf temperature increase ([1]; 2 μM mandipropamid, within 24 hours of treatment): ~2 °C
- flowering during the experiment ([1]; 5 μM mandipropamid): prevented
- persistence of increased leaf temperature ([1]; 5 μM mandipropamid): at least 6 days
- flowering during the experiment ([1]; 20 μM mandipropamid): prevented
- persistence of increased leaf temperature ([1]; 20 μM mandipropamid): at least 6 days
- time to increased leaf temperature after treatment ([1]; mandipropamid treatment): ≤ 4 h
- leaf temperature effect of mandipropamid [2]: not observed
- leaf temperature effect of mandipropamid [3]: not observed
